Converted amounts (≈) assume the structure as drawn.
Experiments:
Type in all cases: functional
[1] = tested on: Staphylococcus aureus; assay: Antibacterial activity against methicillin-resistant Staphylococcus aureus assessed as resistant isolates by CLSI M7-A7 broth microdilution method
[2] = tested on: Streptococcus viridans; assay: Antibacterial activity against penicillin-nonsusceptible Streptococcus viridans by CLSI M7-A7 broth microdilution method
[3] = tested on: Proteus mirabilis; assay: Antibacterial activity against ceftazidime-susceptible Proteus mirabilis by CLSI M7-A7 broth microdilution method
[4] = tested on: Staphylococcus aureus; assay: Antibacterial activity against coagulase-negative and oxacillin-susceptible Staphylococcus aureus assessed as susceptible isolates by CLSI M7-A7 broth microdilution method
[5] = tested on: Enterobacter cloacae; assay: Antibacterial activity against ceftazidime-susceptible Enterobacter cloacae by CLSI M7-A7 broth microdilution method
[6] = tested on: Streptococcus viridans; assay: Antibacterial activity against penicillin-susceptible Streptococcus viridans by CLSI M7-A7 broth microdilution method
[7] = tested on: Citrobacter freundii; assay: Antibacterial activity against ceftazidime-nonsusceptible Citrobacter freundii assessed as susceptible isolates by CLSI M7-A7 broth microdilution method
[8] = tested on: Staphylococcus aureus; assay: Antibacterial activity against methicillin-resistant Staphylococcus aureus by CLSI M7-A7 broth microdilution method
[9] = tested on: Enterobacteriaceae; assay: Antibacterial activity against ceftazidime-susceptible Enterobacteriaceae assessed as resistant isolates by CLSI M7-A7 broth microdilution method
[10] = tested on: Klebsiella pneumoniae; assay: Antibacterial activity against ceftazidime-susceptible Klebsiella pneumoniae by CLSI M7-A7 broth microdilution method
[11] = tested on: Enterobacteriaceae; assay: Antibacterial activity against ceftazidime-nonsusceptible Enterobacteriaceae assessed as susceptible isolates by CLSI M7-A7 broth microdilution method
[12] = tested on: Enterobacter cloacae; assay: Antibacterial activity against ceftazidime-nonsusceptible Enterobacter cloacae by CLSI M7-A7 broth microdilution method
[13] = tested on: Enterobacteriaceae; assay: Antibacterial activity against ceftazidime-susceptible Enterobacteriaceae by CLSI M7-A7 broth microdilution method
[14] = tested on: Enterobacter cloacae; assay: Antibacterial activity against ceftazidime-susceptible Enterobacter cloacae assessed as susceptible isolates by CLSI M7-A7 broth microdilution method
[15] = tested on: Providencia sp.; assay: Antibacterial activity against ceftazidime-susceptible Providencia sp. by CLSI M7-A7 broth microdilution method
[16] = tested on: Proteus mirabilis; assay: Antibacterial activity against ceftazidime-susceptible Proteus mirabilis assessed as resistant isolates by CLSI M7-A7 broth microdilution method
[17] = tested on: Acinetobacter; assay: Antibacterial activity against imipenem-susceptible Acinetobacter assessed as susceptible isolates by CLSI M7-A7 broth microdilution method
[18] = tested on: Acinetobacter; assay: Antibacterial activity against imipenem-susceptible Acinetobacter by CLSI M7-A7 broth microdilution method
[19] = tested on: Serratia marcescens; assay: Antibacterial activity against ceftazidime-susceptible Serratia marcescens assessed as resistant isolates by CLSI M7-A7 broth microdilution method
[20] = tested on: Acinetobacter; assay: Antibacterial activity against multidrug-resistant Acinetobacter by CLSI M7-A7 broth microdilution method
[21] = tested on: Enterobacteriaceae; assay: Antibacterial activity against ceftazidime-nonsusceptible Enterobacteriaceae by CLSI M7-A7 broth microdilution method
[22] = tested on: Escherichia coli; assay: Antibacterial activity against ceftazidime-susceptible Escherichia coli assessed as resistant isolates by CLSI M7-A7 broth microdilution method
[23] = tested on: Morganella morganii; assay: Antibacterial activity against ceftazidime-susceptible Morganella morganii assessed as resistant isolates by CLSI M7-A7 broth microdilution method
[24] = tested on: Pasteurella multocida; assay: Antibacterial activity against Pasteurella multocida by CLSI M7-A7 broth microdilution method
[25] = tested on: Streptococcus pyogenes; assay: Antibacterial activity against erythromycin-susceptible Streptococcus pyogenes by CLSI M7-A7 broth microdilution method
[26] = tested on: Haemophilus influenzae; assay: Antibacterial activity against beta lactamase-negative Haemophilus influenzae by CLSI M7-A7 broth microdilution method
[27] = tested on: Staphylococcus aureus; assay: Antibacterial activity against coagulase-negative and oxacillin-susceptible Staphylococcus aureus assessed as resistant isolates by CLSI M7-A7 broth microdilution method
[28] = tested on: Klebsiella pneumoniae; assay: Antibacterial activity against ceftazidime-nonsusceptible Klebsiella pneumoniae assessed as resistant isolates by CLSI M7-A7 broth microdilution method
[29] = tested on: Haemophilus influenzae; assay: Antibacterial activity against beta lactamase-negative Haemophilus influenzae assessed as susceptible isolates by CLSI M7-A7 broth microdilution method
[30] = tested on: Haemophilus influenzae; assay: Antibacterial activity against beta lactamase-positive Haemophilus influenzae by CLSI M7-A7 broth microdilution method
[31] = tested on: Staphylococcus aureus; assay: Antibacterial activity against coagulase-negative and oxacillin-resistant Staphylococcus aureus by CLSI M7-A7 broth microdilution method
[32] = tested on: Citrobacter freundii; assay: Antibacterial activity against ceftazidime-susceptible Citrobacter freundii assessed as resistant isolates by CLSI M7-A7 broth microdilution method
[33] = tested on: Streptococcus pneumoniae; assay: Antibacterial activity against penicillin-susceptible Streptococcus pneumoniae by CLSI M7-A7 broth microdilution method
[34] = tested on: Streptococcus agalactiae; assay: Antibacterial activity against erythromycin-nonsusceptible Streptococcus agalactiae by CLSI M7-A7 broth microdilution method
[35] = tested on: Morganella morganii; assay: Antibacterial activity against ceftazidime-susceptible Morganella morganii by CLSI M7-A7 broth microdilution method

Compound CC(C)(O/N=C(\C(=O)N[C@@H]1C(=O)N2C(C(=O)[O-])=C(C[n+]3ccccc3)CS[C@H]12)c1csc(N)n1)C(=O)O [CEFTAZIDIME] has an Activity [1] of 54%, an MIC50 [2] of 8 µg/mL (≈ 14.6 µM) and an MIC90 [2] greater than 32 µg/mL. It also gave an MIC50 [3] of 0.06 µg/mL (≈ 0.11 µM), an MIC90 [3] of 0.12 µg/mL (≈ 0.22 µM) and an Activity [4] of 93.5%. For the same compound, the MIC50 [5] was 0.25 µg/mL (≈ 0.457 µM), the MIC90 [5] was 1 µg/mL (≈ 1.83 µM) and the MIC [6] was no more than 1 µg/mL. The MIC50 [6] was no more than 1 µg/mL, the MIC90 [6] was 4 µg/mL (≈ 7.32 µM) and the Activity [7] was 0%. It also gave an MIC50 [8] of 32 µg/mL (≈ 58.5 µM), an MIC90 [8] greater than 32 µg/mL and an Activity [9] of 0%. The MIC50 [10] was 0.12 µg/mL (≈ 0.22 µM), the MIC90 [10] was 0.25 µg/mL (≈ 0.457 µM) and the Activity [11] was 0%. The MIC50 [12] was greater than 32 µg/mL, the MIC90 [12] was greater than 32 µg/mL and the MIC50 [13] was 0.12 µg/mL (≈ 0.22 µM). For the same compound, the MIC90 [13] was 0.5 µg/mL (≈ 0.915 µM), the Activity [14] was 100% and the MIC50 [15] was 0.25 µg/mL (≈ 0.457 µM). The MIC90 [15] was 4 µg/mL (≈ 7.32 µM), the Activity [16] was 0% and the Activity [17] was 63.8%. For the same compound, the MIC50 [18] was 4 µg/mL (≈ 7.32 µM), the MIC90 [18] was greater than 32 µg/mL and the Activity [19] was 0%. The MIC50 [20] was greater than 32 µg/mL, the MIC90 [20] was greater than 32 µg/mL and the MIC50 [21] was greater than 32 µg/mL. For the same compound, the MIC90 [21] was greater than 32 µg/mL, the Activity [22] was 0% and the Activity [23] was 0%. For the same compound, the MIC [24] was no more than 1 µg/mL, the MIC50 [24] was no more than 1 µg/mL and the MIC90 [24] was no more than 1 µg/mL. For the same compound, the MIC [25] was no more than 1 µg/mL, the MIC50 [25] was no more than 1 µg/mL and the MIC90 [25] was no more than 1 µg/mL. The MIC50 [26] was 0.06 µg/mL (≈ 0.11 µM), the MIC90 [26] was 0.12 µg/mL (≈ 0.22 µM) and the Activity [27] was 0.5%. For the same compound, the Activity [28] was 98.5%, the Activity [29] was 98.5% and the MIC50 [30] was 0.06 µg/mL (≈ 0.11 µM). The MIC90 [30] was 0.12 µg/mL (≈ 0.22 µM), the MIC50 [31] was 32 µg/mL (≈ 58.5 µM) and the MIC90 [31] was greater than 32 µg/mL. The Activity [32] was 0%, the MIC [33] was no more than 1 µg/mL and the MIC50 [33] was no more than 1 µg/mL. The MIC90 [33] was no more than 1 µg/mL, the MIC [34] was no more than 1 µg/mL and the MIC50 [34] was no more than 1 µg/mL. For the same compound, the MIC90 [34] was no more than 1 µg/mL, the MIC50 [35] was 0.06 µg/mL (≈ 0.11 µM) and the MIC90 [35] was 4 µg/mL (≈ 7.32 µM).

Source: ChEMBL document CHEMBL1671626, “In vitro profiling of ceftaroline against a collection of recent bacterial clinical isolates from across the United States” (2008)
